Measurements: patent publication US6495529B1 (Warner-Lambert Company, priority 1998, dated 2002)

Experiments:
[1] = biological target: α1-receptors; type: binding, dog; settings: read-out: Alpha-1 Ki
Experimental: The lungs of mongrel dogs were separated from cartilaginous airways and major blood vessels, weighted, chopped and placed into 10 volumes of ice-cold buffered sucrose (50 mM Tris-HCl pH 7.4, 1 mM EGTA, 0.32 M Sucrose). The tissue was then homogenized in a Polytron tissue homogenizer. The homogenate was filtered through two layers of cheesecloth, and the filtrate was dounced three times using a Con-Turque Potter homogenizer. […] The supernatant was recentrifuged at 30,000×g for 30 min at 4° C. and the resulting pellet was washed and resuspended in 10 volumes of Tris buffer (50 mM Tris HCL, pH 7.4, 1 mM EGTA) and incubated at 37° C. for 30 min in a shaking water bath. The suspension was centrifuged at 4° C., at 30,000×g for 30 min and the resulting pellet washed in 10 volumes of Tris buffer. […] Protein concentration was then determined by the Lowry method and the final suspension was adjusted to 10 mg of protein/ml, aliquoted and stored at −90° C.
Nonspecific binding was determined for each concentration point in separate incubations, with 10 μM phentolamine. Each experimental point was determined in triplicate. […] All binding assay incubations were terminated by rapid dilution with 2 ml of ice-cold wash buffer (50 mM Tris-HCl, pH 7.4) and filtration through Whatman GF/B filters using Brandel receptor-binding harvester.
All data were analyzed with the aid of microcomputer nonlinear curve fitting programs (PRISM 2.0, Graphpad Software, San Diego Calif.).
The receptors resident in each of the three membrane preparations were evaluated by standard saturation analysis following the addition of increasing concentrations of the appropriate radioligand. […]

[2] = test system: Swiss-Webster mice; experiment: Locomotor stimulant and depressant effects in mice; settings: mice, i.p.
Experimental: Male Swiss-Webster mice (HSD ND4, Harlan Sprague Dawley, Houston, Tex.) aged 2-3 months were used in these studies. Each dose group consisted of 8 mice. The mice were housed 2 to 4 per cage in 30.4×22.9×15.2 cm clear polycarbonate cages with food and water available ad libitum for at least one week prior to locomotor activity testing. The colony was maintained at 23±1° C., on a normal light-dark cycle beginning at 0700 hr. All testing took place during the light portion of the light-dark cycle.
Horizontal (forward movement) locomotor activity was measured using a standardized, optical activity monitoring system [Model KXYZCM (16), Omnitech Electronics, Columbus, Ohio]. Activity was monitored in forty 40.5×40.5×30.5 cm clear acrylic chambers that where housed in sets of two within larger sound-attenuating chambers. A panel of 16 infrared beams and corresponding photodetectors were spaced 2 cm apart along the sides and 2.4 cm above the floor of each activity chamber. A 7.5-W incandescent light above each chamber provided dim illumination via a rheostat set to 20% of full scale. Fans provided an 80-dB ambient noise level within the chamber.
(+)-Amphetamine was used as a positive control. The total horizontal distance traversed (cm) was recorded at 10 minute intervals for a 2-hour session. Separate groups of 8 mice were assigned to each dose or saline group, and dose-effect testing continued for each compound until maximal stimulant or depressant effects could be estimated. A separate control group was tested along with each compound.
Using TableCurve 2D v2.03 (Jandel Scientific), the mean average total distance traversed (cm/10 min) for that period was fit to a 3-parameter logistic peak function of log10 dose (with the constant set to the mean of the saline group), and the maximum effect estimated from the resulting curve. The ED50 (dose producing ½ maximal stimulant activity) was estimated from a linear regression against log10 dose of the ascending portion of the dose-effect curve. The stimulant efficacy was the peak effect of the compound (cm/10 min) as estimated from the logistic peak function, minus the mean control distance traveled (cm/10 min), and was expressed for each stimulant compound as a ratio to the stimulant efficacy determined for (+)-amphetamine.
The mean average total distance traversed (cm/10 min) for that period were fit to a linear function of log10 dose of the descending portion of the dose-effect curve. […] Efficacy was the ratio of maximal depressant effect to maximum possible depression for each compound (mean average total distance of the control group minus the lowest mean total distance, expressed as a ratio to the control group total distance).
Time course data for each compound were considered in 2-way analyses of variance with dose as a between-group and time as a within-group factor. The dose-effect data were considered in 1-way analyses of variance, and planned individual comparisons were conduced between each dose and the saline control group. Interaction studies were considered in 2-way analyses of variance, with Pretreatment and Test dose as the factors.

[3] = test system: New Zealand white rabbits; experiment: Intraocular pressure (IOP) after topical application to rabbit eye; settings: topical 1% and 2%, rabbit, treated eye
[4] = test system: Sprague Dawley rats; experiment: Nasal airway pressure in normal (non-histamine-challenged) rats; settings: for Mean Decrease in Nasal Airway Pressure: i.v.
[5] = test system: histamine-challenged rats; experiment: Nasal airway pressure in histamine-challenged rats
[6] = test system: New Zealand white rabbits; experiment: Pupil diameter / mydriasis after topical application to rabbit eye
[7] = test system: mongrel dogs; experiment: Intravenous dose increasing mean arterial pressure 10% in anesthetized dogs; settings: anesthetized dog, i.v.

CN[C@@H](C)[C@H](O)c1ccccc1 [(−)-ephedrine]
Ki [1]: 47 µM
locomotor depressant effect (in words) ([2]; 2-hour session): did not cause locomotor depression
locomotor stimulant effect (in words) ([2]; 2-hour session): increased locomotion
onset of increased locomotion after injection ([2]; (−)-ephedrine: following 50 to 100 mg/kg): ≤ 40 min
effect on IOP (in words) [3]: increased IOP
Mean Decrease in Nasal Airway Pressure ([4]; 5% of the dose that increased MAP 10%, mean ± SEM): −1.0 ± 0.8 mm water
Mean Decrease in Nasal Airway Pressure ([4]; 10% of the dose that increased MAP 10%): −2.5 ± 1.5 mm water
Mean Decrease in Nasal Airway Pressure ([4]; 50% of the dose that increased MAP 10%): −1.9 ± 2.0 mm water
Mean decrease in nasal airway pressure, % Change ([4]; 100% dose i.v., non-histamine-challenged rats): −14%
Nasal airway pressure, Post Drug ([4]; after 100% dose (dose raising MAP 10%) into jugular vein): 6 ± 0.5 mm H2O
Nasal airway pressure, Control ([4]; before drug, non-histamine-challenged rats): 7 ± 0.8 mm H2 O
Nasal airway pressure, Post Drug ([5]; 100% dose i.v. two minutes after histamine): 6.4 mm water
Nasal airway pressure, Post Histamine ([5]; after intranasal histamine 50 mM 0.02 ml/nostril, before drug): 8.2 ± 0.7 mm water
Nasal airway pressure, Control ([5]; before histamine and drug): 6.7 ± 0.4 mm water
Mean decrease in nasal airway pressure, % Change ([5]; post drug vs post histamine): −21.8%
Mydriatic Responses, TREATED EYE ([6]; 1% solution): 0
Mydriatic Responses, UNTREATED EYE ([6]; 1% solution): 0
Mydriatic Responses, TREATED EYE ([6]; 2% solution): +++ (+++ >4 mm change)
Mydriatic Responses, UNTREATED EYE ([6]; 2% solution): +++ (+++ >4 mm change)
Pupil Diameter ([6]; drug 1% topical, drug treated eye (T), 0.5 hr): 6 ± 0.4 mm
Pupil Diameter ([6]; drug 1% topical, drug treated eye (T), 1 hr): 6 ± 0.4 mm
Pupil Diameter ([6]; drug 1% topical, drug treated eye (T), 3 hr): 6 ± 0.4 mm
Pupil Diameter ([6]; drug 1% topical, drug treated eye (T), 5 hr): 6 ± 0.4 mm
Pupil Diameter ([6]; drug 1% topical, drug treated eye (T), −0.5 hr (pre-treatment)): 6 ± 0.4 mm
Pupil Diameter ([6]; drug 1% topical, drug treated eye (T), −1 hr (pre-treatment)): 6 ± 0.4 mm
Pupil Diameter ([6]; drug 1% topical, untreated contralateral eye (U), 0.5 hr): 6 ± 0.4 mm
Pupil Diameter ([6]; drug 1% topical, untreated contralateral eye (U), 1 hr): 6 ± 0.4 mm
Pupil Diameter ([6]; drug 1% topical, untreated contralateral eye (U), 3 hr): 6 ± 0.4 mm
Pupil Diameter ([6]; drug 1% topical, untreated contralateral eye (U), 5 hr): 6 ± 0.4 mm
Pupil Diameter ([6]; drug 1% topical, untreated contralateral eye (U), −0.5 hr (pre-treatment)): 6 ± 0.4 mm
Pupil Diameter ([6]; drug 1% topical, untreated contralateral eye (U), −1 hr (pre-treatment), mean ± S.E.): 6 ± 0.4 mm
Pupil Diameter ([6]; drug 2% topical, drug treated eye (T), 0.5 hr): 9 ± 0.2 mm
Pupil Diameter ([6]; drug 2% topical, drug treated eye (T), 1 hr): 9 ± 0.2 mm
Pupil Diameter ([6]; drug 2% topical, drug treated eye (T), 3 hr): 9 ± 0.2 mm
Pupil Diameter ([6]; drug 2% topical, drug treated eye (T), 5 hr): 9 ± 0.2 mm
Pupil Diameter ([6]; drug 2% topical, drug treated eye (T), −0.5 hr (pre-treatment)): 5 ± 0.2 mm
Pupil Diameter ([6]; drug 2% topical, drug treated eye (T), −1 hr (pre-treatment)): 5 ± 0.2 mm
Pupil Diameter ([6]; drug 2% topical, untreated contralateral eye (U), 0.5 hr): 9 ± 0.2 mm
Pupil Diameter ([6]; drug 2% topical, untreated contralateral eye (U), 1 hr): 9 ± 0.2 mm
Pupil Diameter ([6]; drug 2% topical, untreated contralateral eye (U), 3 hr): 9 ± 0.2 mm
Pupil Diameter ([6]; drug 2% topical, untreated contralateral eye (U), 5 hr): 9 ± 0.2 mm
Pupil Diameter ([6]; drug 2% topical, untreated contralateral eye (U), −0.5 hr (pre-treatment)): 5 ± 0.2 mm
Pupil Diameter ([6]; drug 2% topical, untreated contralateral eye (U), −1 hr (pre-treatment)): 5 ± 0.2 mm
mydriasis / effect on pupil diameter (in words) ([6]; topical, rabbit): had no effect on pupil diameter
Intravenous Dose Needed to Increase MAP 10% [7]: 100 µg/kg
